BigSolDB 2.1

CN1COCN(Cc2cnc(Cl)s2)C1=N[N+](=O)[O-]
solubility (mole fraction)
Conditions	278.15 K	283.15 K	288.15 K	293.15 K	298.15 K	303.15 K	308.15 K	313.15 K	318.15 K	323.15 K
in DMF	0.059	0.0658	0.0738	0.0816	0.0892	0.0985	0.11	0.123	0.137	0.152
in NMP	0.0818	0.0882	0.0952	0.102	0.111	0.119	0.128	0.138	0.149	0.161
in acetone	0.00632	0.00763	0.00888	0.0101	0.0121	0.014	0.0164	0.0194	0.023	0.0268
in dichloromethane	0.0126	0.0152	0.0174	0.0197	0.0222	0.0249	0.0277	0.0306	–	–
in ethyl acetate	0.00099	0.00125	0.00155	0.00183	0.0022	0.00257	0.00295	0.00339	0.00384	0.00429
in methyl acetate	0.00283	0.00331	0.00382	0.00446	0.00511	0.00597	0.00708	0.00825	0.0096	0.0114
